Structures can show the parent of a compound that is named as a salt.
Legend:
[1] = tested on: Human adenocarcinoma (HT29) cells; assay: Antiproliferative activity in cancerous cells, cellular growth by haemocytometer; assay type: cell-based; conditions: 96 hours, controls = 100, read-out: Proliferation %
Procedure: Determination of the Antiproliferative Activity of the Compounds of the Invention in Cancerous Cells.
Human adenocarcinoma (HT29) cells taken from colon affected by cancerous process were transferred into plates with 24 wells containing a cellular culture medium formed by 10% of foetal bovine serum, penicillin (50 U/ml), streptomycin ([…]) and PEG 400 (polyethylenglycol). After 24 hours a part of the plates is inoculated with the tested compounds dissolved in the carrier (PEG 400). 96 hours after the inoculation of the compounds the cellular growth was measured by haemocytometer. The results, reported in Table 2, are expressed as percentage of the cellular proliferation with respect to the controls.

[2] = tested on: Human adenocarcinoma HT29 cells; assay: 3H-timidine incorporation in human adenocarcinoma HT29 cells; assay type: cell-based; conditions: 15 hours, cells treated only with Cisplatinum = 100; for timidine incorporation, With 25 μM Cisplatinum: compound 200 μM plus Cisplatinum 25 μM; for timidine incorporation, Without Cisplatinum: compound 200 μM
Procedure: Determination In Vitro of the Effect of the Compounds of the Invention on the Timidine Incorporation in Human Adeno-Carcinoma HT29 Cells. Human adenocarcinoma cells are sown on plates having 24 wells (2.5×10^5 cells/plate) with a standard culture medium. After 24 hours some plates are inoculated with the tested compounds dissolved in dimethylsulphoxide at a 200 μM concentration and others are treated with the tested compounds dissolved in dimethylsulphoxide at a 200 μM concentration in the presence of a solution of cisplatinum 25 μM. After 15 hours of incubation the plates are put into contact with a solution of ^3H-timidine […] (RAS. 3,000 Ci/mol). The cell monolayer of each plate is first washed twice with a cold saline buffer, then treated with TCA (trichloroacetic acid) at 5% for 10 minutes and then washed three times with absolute alcohol. The cells of each well are dissolved in 500 μl of NaOH 0.1N and the incorporated radioactivity is determined by scintallation counting. The obtained results are reported in Table 4 and expressed as percentage of ^3H-Timidine incorporated in the cells treated with the tested compounds and in the presence of Cisplatinum, considering equal to 100 the amount of ^3H-Timidine incorporated in the cells treated only with Cisplatinum.

[3] = tested on: liver injury induced by concanavalin A; assay: Protection from liver injury induced by concanavalin A; assay type: in vivo; conditions: ip, plasmatic glutamic-pyruvic transaminase vs treated control group (=100), 8 hours after concanavalin A 0.3 mg/rat i.v.; for response vs control in vivo at 300 mg/kg: 300 mg/kg intraperitoneal; for response vs control in vivo at 500 mg/kg: 500 mg/kg intraperitoneal; for response vs control in vivo at 200 mg/kg: 200 mg/kg intraperitoneal
Text: Determination of the capability of the compounds of the invention to protect the animals from the liver injury induced by concanavalin A.
The model in vivo used in the present example has been described in Tiegs G, Hentshel J, A Wendel. A T cell-dependent experimental liver injury in mice induced by Concanavalin A. J. Clin. Invest. 1992; 90:196-203.
The animals ([…] of Swiss stock weighing about 20 g) are divided in groups of at least No. 10 animals for group.
The animals receive concanavalin and solvent (treated control group), solvent (polyethylene glycol 400-untreated control group), concanavalin and tested compound dissolved in the solvent (treated groups).
Rats are treated intravenously with concanavalin A (0.3 mg/rat), and after 5 minutes they receive by intraperitoneal injection the tested compounds, at the doses reported in Table 1, dissolved in polyethylenglycol 400.
Eight hours after the concanavalin A injection all the animals were sacrificed and the blood collected and examined. The data, reported in Table 1, are expressed as value of the plasmatic glutamic-pyruvic transaminase percentage of the animals treated with the tested compound with respect to the animals of the treated control group.

[4] = tested on: human epithelial cellular lines of the prostate cancer and of the bladder cancer; assay: Antiproliferative activity in prostate and bladder cancer lines, summary in words; assay type: cell-based; conditions: cellular lines LNCaP and PC3, and 647V, 1207
Procedure: (§1) The experiment was carried out by using three human epithelial cellular lines of the prostate cancer (PNT1A; LLNCaP; PC3) and three human epithelial cellular lines of the bladder cancer (T24; 647V; 1207), the various types of cellular lines are identified on the basis of the characteristics, in particular of the aggressiveness, of the cancerous process.
(§2) The cancerous cells are sown, with an initial concentration of 20,000 cells/cm^2, in plates having 96 wells with a cellular culture medium RPMI added with foetal bovine serum 5% and L-Glutamine 1%. Solutions in dimethylsulphoxide of the tested compounds at three different concentrations (10^−6 M; 10^−5M; 10^−4M) or the carrier (DMSO 1%) are added to the culture medium. 4 days after the treatment the cellular growth was measured by the method with MTT (3-[4,5-dimethylthiazol-2-yl]-2,5-diphenyltetrazolium bromide) de-scribed by Turner in: Turner T., Chen P., Goodly L. J., Wells A. Clin. Exp. Metastasis 1996, 14, 409-418. The results, reported in Table 3, are expressed as inhibition percentage of the cellular proliferation determined by measuring the cellular proliferation in the cellular cultures treated with the tested compounds with respect to that measured in cellular cultures treated with dimethylsulphoxide 1%.
The compound of Ex. 7, reported in the Table with the simplified denomination of nitrooxybutyl ester of the aspirin der. with ferulic ac. is active, at 10^−5 concentrations, in prostate tumours as shown by the results obtained on the cellular lines LNCaP and PC3.

[5] = tested on: T24 human epithelial cells of bladder cancer; assay: Antiproliferative activity, MTT, bladder cancer line T24; assay type: cell-based; conditions: Epithelial cell, 96 h, 4 days, vs DMSO 1%, read-out: Inhibition of the proliferative activity (%); for inhibition at 100 µM: 10^-4 M; for inhibition at 10 µM: 10^-5 M; for inhibition at 1 µM: 10^-6 M
Procedure: (§3) Determination of the Antiproliferative Activity of the Compounds of the Invention in Cancerous Epithelial Cells of Bladder and Prostate.
as §1, §2

[6] = tested on: PNT1A human epithelial cells of prostate cancer; assay: Antiproliferative activity, MTT, prostate cancer line PNT1A; assay type: cell-based; conditions: 96 h, 4 days, vs DMSO 1%, read-out: Inhibition of the proliferative activity (%); for inhibition at 100 µM: 10^-4 M; for inhibition at 10 µM: 10^-5 M; for inhibition at 1 µM: 10^-6 M
Procedure: as §3, §1, §2

[7] = tested on: PC3 human epithelial cells of prostate cancer; assay: Antiproliferative activity, MTT, prostate cancer line PC3; assay type: cell-based; conditions: Epithelial cell, 96 h, 4 days, vs DMSO 1%, read-out: Inhibition of the proliferative activity (%); for inhibition at 100 µM: 10^-4 M; for inhibition at 10 µM: 10^-5 M; for inhibition at 1 µM: 10^-6 M
Procedure: as §3, §1, §2

[8] = tested on: 1207 human epithelial cells of bladder cancer; assay: Antiproliferative activity, MTT, bladder cancer line 1207; assay type: cell-based; conditions: Epithelial cell, 96 h, 4 days, vs DMSO 1%, read-out: Inhibition of the proliferative activity (%); for inhibition at 100 µM: 10^-4 M; for inhibition at 10 µM: 10^-5 M; for inhibition at 1 µM: 10^-6 M
Procedure: as §3, §1, §2

[9] = tested on: 647V human epithelial cells of bladder cancer; assay: Antiproliferative activity, MTT, bladder cancer line 647V; assay type: cell-based; conditions: 96 h, 4 days, vs DMSO 1%, read-out: Inhibition of the proliferative activity (%); for inhibition at 100 µM: 10^-4 M; for inhibition at 10 µM: 10^-5 M; for inhibition at 1 µM: 10^-6 M
Procedure: as §3, §1, §2

[10] = tested on: LNCaP human epithelial cells of prostate cancer; assay: Antiproliferative activity, MTT, prostate cancer line LNCaP; assay type: cell-based; conditions: 96 h, 4 days, vs DMSO 1%, read-out: Inhibition of the proliferative activity (%); for inhibition at 100 µM: 10^-4 M; for inhibition at 10 µM: 10^-5 M; for inhibition at 1 µM: 10^-6 M
Procedure: as §3, §1, §2

With CC(=O)Oc1ccccc1C(=O)O [Aspirin, Acetylsalicylic Acid, reference compound] the activity at 500 µM ([1]; HT-29, 500 μM) was 100%, the “timidine incorporation, With 25 μM Cisplatinum” value [2] was 100% and the “timidine incorporation, Without Cisplatinum” value [2] was 438%. It also gave a response vs control in vivo at 300 mg/kg [3] of 120%.

In the case of O=C(O)c1ccccc1O [Salicylic acid, Salicylic Acid, reference compound], the “timidine incorporation, With 25 μM Cisplatinum” value [2] is reported as 100% and the “timidine incorporation, Without Cisplatinum” value [2] is reported as 438%.

CC(=O)Nc1ccc(OC(=O)CCCO[N+](=O)[O-])cc1 [Ex. 9, 4-nitrooxybutanoic acid 4′-acetylamino phenyl ester] was tested, and the response vs control in vivo at 500 mg/kg [3] was 10%.

With CC(=O)Oc1ccccc1C(=O)OCc1ncccc1CO[N+](=O)[O-] [Ex. 4, 2-acetyloxybenzoic acid 3-(nitrooxymethyl)-2-methylpyridinyl ester hydrochloride] the response vs control in vivo at 300 mg/kg [3] was 7%.

In the case of CC1=C(CC(=O)O)c2cc(F)ccc2/C1=C\c1ccc([S+](C)[O-])cc1 (centres unmarked) [Sulindac, reference compound], the activity at 50 µM ([1]; HT-29, 50 μM) is reported as 100% and the response vs control in vivo at 200 mg/kg [3] is reported as 115%.

CC(=O)Oc1ccccc1C(=O)Oc1ccccc1CO[N+](=O)[O-] [Ex. 20, 2-acetyloxybenzoic acid 2-(nitrooxymethyl)phenyl ester] showed an activity at 20 µM ([1]; HT-29, 20 μM) of 50%.

CC(=O)Oc1ccccc1C(=O)OCc1ccc(CO[N+](=O)[O-])cn1 [Ex. 3, 2-acetyloxybenzoic acid 5-(nitrooxymethyl)-2-methylpyridinyl ester hydrochloride] gave a response vs control in vivo at 300 mg/kg [3] of 5%.

In the case of COc1cc(/C=C/C(=O)Oc2ccc(NC(C)=O)cc2)ccc1OC(=O)CCCO[N+](=O)[O-] [Ex. 8, trans-3-[4-(4′-nitrooxybutyryloxy)-3-methoxyphenyl]-2-propenoic acid 4-(acetylamino)phenyl ester], the response vs control in vivo at 500 mg/kg [3] is reported as 8%.

CC1=C(CC(=O)OCc2cccc(CO[N+](=O)[O-])n2)c2cc(F)ccc2/C1=C\c1ccc([S+](C)[O-])cc1 (centres unmarked) [Ex. 19] was tested, and the response vs control in vivo at 200 mg/kg [3] was 23%.

With O=C(Oc1cccc(CO[N+](=O)[O-])c1)c1ccccc1O [Ex. 15, 2-hydroxybenzoic Acid 3-(nitrooxymethyl)phenyl ester] the “timidine incorporation, With 25 μM Cisplatinum” value [2] was 50% and the “timidine incorporation, Without Cisplatinum” value [2] was 246%.

For COc1cc(/C=C/C(=O)OCCCCO[N+](=O)[O-])ccc1OC(=O)C(C)c1ccc(-c2ccccc2)c(F)c1 (stereo not drawn) [Ex. 17, trans-3-[4-[2-fluoro-α-methyl-(1,1′-biphenyl)-4-acetyloxy]-3-methoxyphenyl]-2-propenoyl 4-(nitrooxy) butyl ester], the “activity in very aggressive prostate and bladder tumours (in words)” value [4] was “active”, the inhibition at 100 µM [5] was 23% and the inhibition at 10 µM [5] was 0%. For the same compound, the inhibition at 1 µM [5] was 0%, the inhibition at 100 µM [6] was 13% and the inhibition at 10 µM [6] was 2%. It also gave an inhibition at 1 µM [6] of 0%, an inhibition at 100 µM [7] of 53% and an inhibition at 10 µM [7] of 20%. It also gave an inhibition at 1 µM [7] of 8%, an inhibition at 100 µM [8] of 34% and an inhibition at 10 µM [8] of 0%. It also gave an inhibition at 1 µM [8] of 0%, an inhibition at 100 µM [9] of 41% and an inhibition at 10 µM [9] of 13%. The inhibition at 1 µM [9] was 0%, the inhibition at 100 µM [10] was 58% and the inhibition at 10 µM [10] was 26%. The inhibition at 1 µM [10] was 1%.

With CC(=O)Oc1ccccc1C(=O)OCc1cccc(CO[N+](=O)[O-])n1 [Ex. 1, 2-acetyloxybenzoic acid 6-(nitrooxymethyl)-2-methylpyridinyl ester hydrochloride] the activity at 10 µM ([1]; HT-29, 10 μM) was 0%.

With COc1cc(/C=C/C(=O)OCCCCO[N+](=O)[O-])ccc1OC(=O)C(C)c1ccc(CC(C)C)cc1 (stereo not drawn) [Ex. 16, Trans-3-[4-[α-methyl-[4-(-2-methylpropyl)benzene]acetyloxy]-3-methoxyphenyl]-2-propenoyl 4-(nitrooxy) butyl ester] the “activity in very aggressive prostate and bladder tumours (in words)” value [4] was “active”, the inhibition at 100 µM [5] was 22% and the inhibition at 10 µM [5] was 0%. The inhibition at 1 µM [5] was 0%, the inhibition at 100 µM [6] was 20% and the inhibition at 10 µM [6] was 4%. For the same compound, the inhibition at 1 µM [6] was 0%, the inhibition at 100 µM [7] was 47% and the inhibition at 10 µM [7] was 9%. The inhibition at 1 µM [7] was 4%, the inhibition at 100 µM [8] was 43% and the inhibition at 10 µM [8] was 0%. It also gave an inhibition at 1 µM [8] of 2%, an inhibition at 100 µM [9] of 45% and an inhibition at 10 µM [9] of 0%. It also gave an inhibition at 1 µM [9] of 0%, an inhibition at 100 µM [10] of 60% and an inhibition at 10 µM [10] of 33%. It also gave an inhibition at 1 µM [10] of 8%.

With CC(=O)Oc1ccccc1C(=O)Oc1cccc(CO[N+](=O)[O-])c1 [Ex. 5, 3-nitrooxymethylphenyl ester of the 2-acetoxybenzoic acid] the activity at 300 µM ([1]; HT-29, 300 μM) was 40%, the “timidine incorporation, With 25 μM Cisplatinum” value [2] was 46% and the “timidine incorporation, Without Cisplatinum” value [2] was 192%.

In the case of CC(=O)Nc1ccc(O)cc1 [Paracetamol, reference compound], the response vs control in vivo at 500 mg/kg [3] is reported as 160%.

From patent publication US7629368B2, “Nitroderivatives as drugs for diseases having an inflammatory basis” (Nicox S.A., priority 2000, dated 2009)
